# From paper PMC10643470, “Knockout or inhibition of USP30 protects dopaminergic neurons in a Parkinson’s disease mouse model” (Nature Communications, 2023)
# “And” between values parts separate entries of the source, which are not always exact repeats. Equal entries are not always repeated.
# Tests used:
# [1] = tested on: TOM20-ubiquitylation in control (AHN) iPSC-derived dopaminergic neurons; experiment: TOM20-ubiquitylation in control iPSC-derived dopaminergic neurons; type: cell-based, human; conditions: no exogenous stimuli
# Description: Donor-derived DopaNeuron lines were generated from source material provided by the Parkinson’s Progression Markers Initiative (PPMI) through The Michael J. Fox Foundation. Human iPS cells-derived DopaNeurons were purchased from Fujifilm/Cellular Dynamics. Apparently healthy normal (AHN) (catalog # R1088) or alpha-synuclein A53T mutated (A53T) (catalog # R1109) iPSC-derived dopaminergic neurons (dopaneurons) were thawed from liquid nitrogen. 400 000 viable (counted using a cell counter) dopaneurons […] were plated per well into 24 well plates on day 0 in complete maintenance medium (CMM).
# A half-medium change was performed on the cells on Day 3 with CMM. On Day 5 cells were half-medium changed with complete brainphys medium. […] Cells were given half medium changes with or without compounds (depending on whether treatments with compound had started) every 2-3 days.
# [2] = tested on: AAV-A53T-SNCA PD mouse model; experiment: Iba1/GFAP immunostaining in SNpc, AAV-A53T-SNCA mouse model (compound study); type: in vivo; set-up: key to Figure S7a immunostaining, Left / Figure S7a immunostaining, Right: % stained area = stained area / region area × 100
# Description: (§1) For the compound study, the fixed, cryoprotected and frozen midbrain samples were sectioned as coronal sections at 100 µm intervals through SNpc and ventral tegmental area (VTA) and mounted on glass slides. Sectioning was started at −2.6 mm from bregma and continued to −3.7 mm from bregma in the AP axis (coordinates based on Franklin & Paxinos: The Mouse Brain in Stereotaxic Coordinates). For the immunostaining, the sections were stained with anti-TH following permeabilization. The stained sections were scanned with the Olympus VS120 slide scanner and analyzed with a VIS-Visiopharm Integrator System (Visiopharm, Denmark) by a blinded data analyst. All cells of interest with visible nuclei were labeled manually and counted using an APP (Analysis Protocol Package), scaled by section thickness and sectioning interval to estimate the total cell population in the SNpc. For immunostaining of Ser129 αSyn phosphorylation, TSA amplification was used with primary antibody ab51253 (Abcam). Blinded analysis was used, and positive cells per area were determined. For dual IF IHC of Iba1 (WAKO) and GFAP (ab4674 – Abcam), the stained sections were scanned and analyzed by a blinded data analyst. Analysis determines the percentage of positive staining area [%area = (stained area/region area) * (100)]. To calculate % of stained area, the same threshold value was applied to all sections with the same antibody staining. All pixels above the threshold value were considered positive. All striatal densitometry and neuronal counting data for both KO and inhibitor studies were obtained by an investigator blinded to genotype and treatment.
# [3] = tested on: AAV-A53T-SNCA PD mouse model; experiment: Total αSyn and phospho-S129 αSyn immunostaining in SNpc, AAV-A53T-SNCA mouse model (compound study); type: in vivo
# Description: as §1
# [4] = biological target: Cathepsin L (Homo sapiens, UniProt P07711); experiment: DUB/cathepsin selectivity biochemical assay; conditions: Supplementary Fig. 6a; read-out: Selectivity vs Cathepsins (IC50), Cath L
# Cathepsin L, sequence (P07711 114-333, species assumed): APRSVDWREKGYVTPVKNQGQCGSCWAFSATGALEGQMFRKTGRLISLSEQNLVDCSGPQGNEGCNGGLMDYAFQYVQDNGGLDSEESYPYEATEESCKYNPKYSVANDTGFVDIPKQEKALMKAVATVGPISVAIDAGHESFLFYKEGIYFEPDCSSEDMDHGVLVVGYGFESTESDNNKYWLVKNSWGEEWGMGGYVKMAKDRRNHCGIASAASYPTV
# [5] = biological target: T1, USP21 CD (Homo sapiens, UniProt Q9UK80); experiment: DUB/cathepsin selectivity biochemical assay
# T1 construct: USP21 CD
# [6] = biological target: USP16 (Homo sapiens, UniProt Q9Y5T5); experiment: DUB/cathepsin selectivity biochemical assay
# [7] = biological target: USP10 (Homo sapiens, UniProt Q14694); experiment: DUB/cathepsin selectivity biochemical assay
# [8] = biological target: USP22 (Homo sapiens, UniProt Q9UPT9); experiment: DUB/cathepsin selectivity biochemical assay
# USP22, sequence (Q9UPT9 whole entry, species assumed): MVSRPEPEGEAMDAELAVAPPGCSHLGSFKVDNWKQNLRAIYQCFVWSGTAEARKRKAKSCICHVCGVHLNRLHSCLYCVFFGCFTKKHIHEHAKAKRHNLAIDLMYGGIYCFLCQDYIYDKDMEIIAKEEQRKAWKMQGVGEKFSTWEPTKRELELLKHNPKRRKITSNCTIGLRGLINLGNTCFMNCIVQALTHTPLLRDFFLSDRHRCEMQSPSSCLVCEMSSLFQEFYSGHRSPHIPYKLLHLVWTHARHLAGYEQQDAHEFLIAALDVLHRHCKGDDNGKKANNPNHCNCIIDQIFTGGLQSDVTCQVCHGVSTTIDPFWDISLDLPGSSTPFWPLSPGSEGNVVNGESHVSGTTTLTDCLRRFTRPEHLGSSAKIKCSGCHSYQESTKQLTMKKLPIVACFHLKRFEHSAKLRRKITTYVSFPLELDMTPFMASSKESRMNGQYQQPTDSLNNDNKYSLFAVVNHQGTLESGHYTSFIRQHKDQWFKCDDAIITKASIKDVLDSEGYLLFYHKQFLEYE
# [9] = biological target: USP47 (Homo sapiens, UniProt Q96K76); experiment: DUB/cathepsin selectivity biochemical assay
# USP47, sequence (Q96K76 whole entry, species assumed): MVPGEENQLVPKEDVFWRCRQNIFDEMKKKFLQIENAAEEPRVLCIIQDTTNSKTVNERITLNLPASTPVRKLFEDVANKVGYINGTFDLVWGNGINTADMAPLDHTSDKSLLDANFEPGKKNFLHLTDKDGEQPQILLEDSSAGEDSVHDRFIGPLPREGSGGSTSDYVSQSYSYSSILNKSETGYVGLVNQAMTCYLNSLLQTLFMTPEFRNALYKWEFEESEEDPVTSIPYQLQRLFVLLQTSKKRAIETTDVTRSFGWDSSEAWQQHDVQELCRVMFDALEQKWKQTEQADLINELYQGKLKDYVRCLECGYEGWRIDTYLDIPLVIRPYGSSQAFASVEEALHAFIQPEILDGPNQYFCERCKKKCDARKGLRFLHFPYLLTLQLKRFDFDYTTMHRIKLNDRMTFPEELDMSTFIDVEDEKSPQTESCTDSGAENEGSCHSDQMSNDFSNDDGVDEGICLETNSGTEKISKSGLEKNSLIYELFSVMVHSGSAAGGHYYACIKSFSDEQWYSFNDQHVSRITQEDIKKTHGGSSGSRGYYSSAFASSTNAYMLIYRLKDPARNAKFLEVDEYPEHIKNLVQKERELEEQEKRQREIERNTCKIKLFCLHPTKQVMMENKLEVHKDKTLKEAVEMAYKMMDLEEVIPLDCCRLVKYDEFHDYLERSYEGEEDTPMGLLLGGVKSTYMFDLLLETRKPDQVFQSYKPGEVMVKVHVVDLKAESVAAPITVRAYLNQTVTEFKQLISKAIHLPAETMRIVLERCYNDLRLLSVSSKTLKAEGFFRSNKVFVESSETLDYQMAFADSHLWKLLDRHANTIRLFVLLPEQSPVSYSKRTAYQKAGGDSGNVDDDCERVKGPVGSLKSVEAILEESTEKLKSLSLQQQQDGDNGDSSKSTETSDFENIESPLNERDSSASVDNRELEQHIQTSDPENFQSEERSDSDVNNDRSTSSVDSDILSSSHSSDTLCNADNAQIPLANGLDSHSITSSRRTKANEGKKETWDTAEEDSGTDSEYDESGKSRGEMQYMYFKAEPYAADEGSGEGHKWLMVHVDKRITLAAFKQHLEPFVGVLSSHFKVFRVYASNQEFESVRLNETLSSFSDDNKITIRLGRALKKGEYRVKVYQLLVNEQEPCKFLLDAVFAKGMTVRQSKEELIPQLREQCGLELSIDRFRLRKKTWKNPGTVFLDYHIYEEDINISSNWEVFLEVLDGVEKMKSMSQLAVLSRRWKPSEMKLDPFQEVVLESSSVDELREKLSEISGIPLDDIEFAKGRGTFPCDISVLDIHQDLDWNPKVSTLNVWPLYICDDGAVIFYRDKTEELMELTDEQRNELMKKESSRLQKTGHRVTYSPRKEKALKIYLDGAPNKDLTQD
# [10] = biological target: USP8 (Homo sapiens, UniProt P40818); experiment: DUB/cathepsin selectivity biochemical assay
# [11] = biological target: USPL1 (Homo sapiens, UniProt Q5W0Q7); experiment: DUB/cathepsin selectivity biochemical assay
# USPL1, sequence (Q5W0Q7 whole entry, species assumed): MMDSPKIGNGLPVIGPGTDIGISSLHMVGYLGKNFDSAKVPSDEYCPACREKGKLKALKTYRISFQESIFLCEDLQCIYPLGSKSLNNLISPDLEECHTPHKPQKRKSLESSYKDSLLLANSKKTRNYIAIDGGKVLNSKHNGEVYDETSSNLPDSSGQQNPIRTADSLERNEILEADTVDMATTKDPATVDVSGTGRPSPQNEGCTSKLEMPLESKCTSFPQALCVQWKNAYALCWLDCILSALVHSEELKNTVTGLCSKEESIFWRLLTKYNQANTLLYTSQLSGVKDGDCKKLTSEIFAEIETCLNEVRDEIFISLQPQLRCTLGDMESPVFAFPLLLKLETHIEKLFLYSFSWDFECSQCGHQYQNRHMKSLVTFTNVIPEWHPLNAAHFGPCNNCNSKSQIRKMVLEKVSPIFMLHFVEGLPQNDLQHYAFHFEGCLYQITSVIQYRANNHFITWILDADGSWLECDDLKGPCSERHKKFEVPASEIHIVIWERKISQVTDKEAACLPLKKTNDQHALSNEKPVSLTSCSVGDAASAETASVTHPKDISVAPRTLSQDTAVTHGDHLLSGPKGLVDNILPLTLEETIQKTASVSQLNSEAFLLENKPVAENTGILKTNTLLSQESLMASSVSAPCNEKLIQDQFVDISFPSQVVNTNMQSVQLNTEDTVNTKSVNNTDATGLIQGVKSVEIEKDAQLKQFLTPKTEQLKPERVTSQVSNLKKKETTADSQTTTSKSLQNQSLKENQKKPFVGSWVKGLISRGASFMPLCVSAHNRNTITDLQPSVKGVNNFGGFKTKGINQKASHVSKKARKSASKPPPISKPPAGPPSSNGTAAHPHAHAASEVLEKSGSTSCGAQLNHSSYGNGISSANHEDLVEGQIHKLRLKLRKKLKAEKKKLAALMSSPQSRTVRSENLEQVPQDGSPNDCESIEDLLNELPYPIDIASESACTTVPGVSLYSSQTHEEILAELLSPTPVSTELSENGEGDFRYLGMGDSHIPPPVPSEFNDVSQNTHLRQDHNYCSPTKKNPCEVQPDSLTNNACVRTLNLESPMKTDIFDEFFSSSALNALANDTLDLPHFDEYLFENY
# [12] = biological target: USP24 (Homo sapiens, UniProt Q9UPU5); experiment: DUB/cathepsin selectivity biochemical assay
# [13] = biological target: OTUD6A (Homo sapiens, UniProt Q7L8S5); experiment: DUB/cathepsin selectivity biochemical assay
# [14] = biological target: USP48 (Homo sapiens, UniProt Q86UV5); experiment: DUB/cathepsin selectivity biochemical assay
# [15] = biological target: T2, SENP2 CD (Homo sapiens, UniProt Q9HC62); experiment: DUB/cathepsin selectivity biochemical assay
# T2 construct: SENP2 CD
# T2 sequence (Q9HC62 396-560 limits assumed): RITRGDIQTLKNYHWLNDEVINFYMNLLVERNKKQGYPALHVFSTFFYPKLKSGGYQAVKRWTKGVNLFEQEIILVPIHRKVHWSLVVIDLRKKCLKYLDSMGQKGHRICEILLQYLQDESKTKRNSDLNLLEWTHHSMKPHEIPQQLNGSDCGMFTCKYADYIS
# [16] = biological target: UchL5 (Homo sapiens, UniProt Q9Y5K5); experiment: DUB/cathepsin selectivity biochemical assay
# UchL5, sequence (Q9Y5K5 whole entry, species assumed): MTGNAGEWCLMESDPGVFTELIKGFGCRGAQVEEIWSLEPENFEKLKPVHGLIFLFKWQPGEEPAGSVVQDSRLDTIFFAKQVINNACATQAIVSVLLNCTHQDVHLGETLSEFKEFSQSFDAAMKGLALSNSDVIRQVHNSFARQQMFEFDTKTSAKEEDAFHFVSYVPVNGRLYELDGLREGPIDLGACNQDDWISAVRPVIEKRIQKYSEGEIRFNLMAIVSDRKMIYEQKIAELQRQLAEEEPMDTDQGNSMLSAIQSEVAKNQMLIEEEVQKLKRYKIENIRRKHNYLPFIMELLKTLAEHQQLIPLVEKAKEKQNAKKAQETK
# [17] = biological target: USP4 (Homo sapiens, UniProt Q13107); experiment: DUB/cathepsin selectivity biochemical assay
# [18] = biological target: USP35 (Homo sapiens, UniProt Q9P2H5); experiment: DUB/cathepsin selectivity biochemical assay
# [19] = biological target: USP9x (Homo sapiens, UniProt Q93008); experiment: DUB/cathepsin selectivity biochemical assay
# [20] = biological target: T3, SENP1 CD (Homo sapiens, UniProt Q9P0U3); experiment: DUB/cathepsin selectivity biochemical assay
# T3 construct: SENP1 CD
# T3 sequence (Q9P0U3 450-613 limits assumed): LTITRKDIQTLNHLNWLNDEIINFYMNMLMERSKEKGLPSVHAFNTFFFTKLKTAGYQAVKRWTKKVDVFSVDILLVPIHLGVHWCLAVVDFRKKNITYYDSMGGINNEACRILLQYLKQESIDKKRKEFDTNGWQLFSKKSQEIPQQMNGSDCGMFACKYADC
# [21] = biological target: USP7 (Homo sapiens, UniProt Q93009); experiment: DUB/cathepsin selectivity biochemical assay
# [22] = biological target: BAP1 (Homo sapiens, UniProt Q92560); experiment: DUB/cathepsin selectivity biochemical assay
# [23] = biological target: T4, OTUD3 CD (Homo sapiens, UniProt Q5T2D3); experiment: DUB/cathepsin selectivity biochemical assay
# T4 construct: OTUD3 CD
# [24] = biological target: USP15 (Homo sapiens, UniProt Q9Y4E8); experiment: DUB/cathepsin selectivity biochemical assay
# [25] = biological target: USP20 (Homo sapiens, UniProt Q9Y2K6); experiment: DUB/cathepsin selectivity biochemical assay
# [26] = biological target: USP5 (Homo sapiens, UniProt P45974); experiment: DUB/cathepsin selectivity biochemical assay
# [27] = biological target: SENP6 (Homo sapiens, UniProt Q9GZR1); experiment: DUB/cathepsin selectivity biochemical assay
# SENP6, sequence (Q9GZR1 whole entry, species assumed): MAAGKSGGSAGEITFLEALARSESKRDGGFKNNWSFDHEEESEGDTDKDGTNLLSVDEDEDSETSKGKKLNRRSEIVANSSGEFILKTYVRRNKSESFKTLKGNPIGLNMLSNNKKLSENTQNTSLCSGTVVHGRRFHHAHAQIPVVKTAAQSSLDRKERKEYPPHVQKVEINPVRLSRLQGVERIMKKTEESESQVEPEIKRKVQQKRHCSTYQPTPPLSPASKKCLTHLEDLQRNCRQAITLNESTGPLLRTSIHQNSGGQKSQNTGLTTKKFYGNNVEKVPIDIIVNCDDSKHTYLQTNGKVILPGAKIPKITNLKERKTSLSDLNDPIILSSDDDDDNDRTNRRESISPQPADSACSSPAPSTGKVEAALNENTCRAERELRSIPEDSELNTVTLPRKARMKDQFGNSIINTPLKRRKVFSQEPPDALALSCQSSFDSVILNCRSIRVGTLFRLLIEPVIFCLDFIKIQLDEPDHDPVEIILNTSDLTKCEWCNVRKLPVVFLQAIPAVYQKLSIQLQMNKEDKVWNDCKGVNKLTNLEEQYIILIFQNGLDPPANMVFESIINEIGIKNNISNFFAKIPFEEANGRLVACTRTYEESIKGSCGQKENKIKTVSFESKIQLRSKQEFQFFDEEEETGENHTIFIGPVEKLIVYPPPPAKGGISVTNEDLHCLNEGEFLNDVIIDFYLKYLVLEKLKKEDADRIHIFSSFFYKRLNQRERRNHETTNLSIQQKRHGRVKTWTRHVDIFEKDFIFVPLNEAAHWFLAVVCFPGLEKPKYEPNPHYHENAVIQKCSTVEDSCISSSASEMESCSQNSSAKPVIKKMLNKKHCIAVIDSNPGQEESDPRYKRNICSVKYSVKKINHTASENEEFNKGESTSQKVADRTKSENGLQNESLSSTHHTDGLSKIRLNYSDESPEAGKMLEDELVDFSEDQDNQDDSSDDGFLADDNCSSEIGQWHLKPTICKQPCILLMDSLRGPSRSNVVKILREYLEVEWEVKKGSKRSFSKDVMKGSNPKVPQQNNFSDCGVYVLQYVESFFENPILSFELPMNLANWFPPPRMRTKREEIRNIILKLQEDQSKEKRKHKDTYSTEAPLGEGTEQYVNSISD
# [28] = AAV-A53T + MTX115325 (50 mg/kg), Group 5, Left hemisphere, individual animal values (Animal ID in r3)
# [29] = AAV-A53T + MTX115325 (50 mg/kg), Group 5, Right hemisphere, individual animal values (Animal ID in r3)
structure (smiles),measurement,setting,value
C[C@@H]1[C@H]2CCN(C(=O)c3ncc(-c4ccnc(C#N)c4)o3)[C@H]2CN1C#N [MTX115325],TOM20-ubiquitylation,"[1]; control background, 24 h, 1 µM",increased TOM20-ubiquitylation
same,TOM20-ubiquitylation,"[1]; control neurons, 7 days at 10 nM, 100 nM or 1 µM",caused the upregulation of TOM20-ubiquitylation
same,Total GFAP stained area,"[2]; 50 mg/kg, SNpc",significantly decreased
same,"Figure S7b immunostaining quantification, Left",[2]; [28],1.3107 and 1.822 and 1.54 and 1.4872 and 0.5058 and 0.5702 and 1.26 and 0.5434 and 3.27 and 0.3697 and 0.5693 and 0.3721 and 1.3682
same,"Figure S7b immunostaining quantification, Right",[2]; [29],5.052 and 9.289 and 2.625 and 1.026 and 0.413 and 0.7794 and 1.305 and 0.7197 and 2.306 and 0.4784 and 1.89 and 0.7362 and 2.027
same,"Figure S7a immunostaining, Left","[2]; Group 5: AAV-A53T + MTX115325 (50 mg/kg), Left side, individual animals",7.176 and 11.087 and 12.7517 and 7.21 and 7.515 and 4.054 and 9.929 and 4.978 and 8.49 and 4.199 and 4.24 and 6.399 and 9.051
same,"Figure S7a immunostaining, Right","[2]; Group 5: AAV-A53T + MTX115325 (50 mg/kg), Right side, individual animals",24.0437 and 23.3177 and 16.4732 and 6.609 and 8.915 and 4.627 and 11.7034 and 7.051 and 10.4594 and 5.626 and 7.142 and 6.872 and 11.3579
same,Phosphorylated S129-αSyn,"[3]; 50 mg/kg, SNpc",significantly reduced
same,"Figure S7c immunostaining quantification, Left",[3]; [28],0 (7×) and 0.04487 and 0.008105 and 0.007836 and 0.01908 and 0.009848 and 0.001515 and 0.003247 and 0.005828
same,"Figure S7d immunostaining quantification, Left",[3]; [28],0 (10×) and 1.603 and 0.7671 and 1.12 and 0.7902
same,"Figure S7c immunostaining quantification, Right",[3]; [29],0.007974 and 0.07707 and 0.1923 and 0.06947 and 0.001983 and 0 (5×) and 0.06633 and 0.1857 and 0.01165 and 0.002029 and 6.4046e-5
same,"Figure S7d immunostaining quantification, Right",[3]; [29],57.3627 and 99.9359 and 9.299 and 6.893 and 1.412 and 0 (4×) and 0.2913 and 18.3383 and 84.6359 and 0.2072 and 0.6527
same,IC50,[4],42.1 µM
same,IC50,[5],60.7 µM
same,IC50,[6],83.7 µM
same,IC50,[7],107 µM
same,IC50,[8],147 µM
same,IC50,[9],212 µM
same,IC50,[10],> 300 µM
same,IC50,[11],> 300 µM
same,IC50,[12],> 300 µM
same,IC50,[13],> 300 µM
same,IC50,[14],> 300 µM
same,IC50,[15],> 300 µM
same,IC50,[16],> 300 µM
same,IC50,[17],> 300 µM
same,IC50,[18],> 300 µM
same,IC50,[19],> 300 µM
same,IC50,[20],> 300 µM
same,IC50,[21],> 300 µM
same,IC50,[22],> 300 µM
same,IC50,[23],> 300 µM
same,IC50,[24],> 300 µM
same,IC50,[25],> 300 µM
same,IC50,[26],> 300 µM
same,IC50,[27],> 300 µM
